For orientation: inhibition means the change of the read-out against control, counted positive when it falls. In general, Dmax refers to the largest share of the target that was removed.

The source of these data is ChEMBL document CHEMBL5463725, “Data for DCP probe BAY-277” (2023).

Assay [1] addresses Interferon-induced, double-stranded RNA-activated protein kinase (Homo sapiens) (UniProt P19525). The assay is described as follows: Inhibition of PKR(h) at 10.0 µM in the Eurofins Kinase panel. To be noted: Compound concentration 10.0 uM.
The target in assay [2] is Serine/threonine-protein kinase ICK (Homo sapiens) (UniProt Q9UPZ9). As to the kind of experiment: Inhibition of ICK(h) at 10.0 µM in the Eurofins Kinase panel. To be noted: Compound concentration 10.0 uM.
Assay [3] deals with Glutamate NMDA receptor (Rattus norvegicus) (UniProt P35439+Q00959+Q00960+Q00961+Q62645+Q8VHN2+Q9R1M7). The assay is described as follows: Inhibition of Glutamate, NMDA, Glycine at 10.0 µM in the Eurofins Panlabs Safety Screen. Format: protein-complex assay. The conditions noted are these: Compound concentration 10.0 uM.
Assay [4] addresses MAP kinase-activated protein kinase 3 (Homo sapiens) (UniProt Q16644). As to the kind of experiment: Inhibition of MAPKAP-K3(h) at 10.0 µM in the Eurofins Kinase panel. The conditions noted are these: Compound concentration 10.0 uM.
In assay [5] the target is Serine/threonine-protein kinase Sgk1 (Homo sapiens) (UniProt O00141). The assay is described as follows: Inhibition of SGK(h) at 10.0 µM in the Eurofins Kinase panel. The conditions noted are these: Compound concentration 10.0 uM.
Assay [6] deals with GABA transporter (Rattus norvegicus) (UniProt P31647+P23978+P31646+P48056). The assay is described as follows: Inhibition of Transporter, GABA at 10.0 µM in the Eurofins Panlabs Safety Screen. It is filed as protein assay. The conditions noted are these: Compound concentration 10.0 uM.
Assay [7] has as its target Mitogen-activated protein kinase kinase kinase kinase 2 MAP4K2 (Homo sapiens) (UniProt Q12851). The assay is described as follows: Inhibition of GCK at 10.0 µM in the Eurofins Kinase panel. The conditions noted are these: Compound concentration 10.0 uM.
In assay [8] the test system is Arachidonate 15-lipoxygenase B ALOX15B (Homo sapiens). The assay is described as follows: Inhibition of Lipoxygenase 15-LOX-2 at 10.0 µM in the Eurofins Panlabs Safety Screen. The conditions noted are these: Compound concentration 10.0 uM.
The target of assay [9] is eIF-2-alpha kinase GCN2 (Homo sapiens) (UniProt Q9P2K8). The assay is described as follows: Inhibition of GCN2(h) at 10.0 µM in the Eurofins Kinase panel. To be noted: Compound concentration 10.0 uM.
The target in assay [10] is Tyrosine-protein kinase JAK2 (Homo sapiens) (UniProt O60674). The assay is described as follows: Inhibition of JAK2(h) at 10.0 µM in the Eurofins Kinase panel. To be noted: Compound concentration 10.0 uM.
The target of assay [11] is Methionine aminopeptidase 2 (Homo sapiens, UniProt P50579). The assay is described as follows: Degradation in HT1080 cells (CE) Dmax (Capillary electrophoresis (CE)). It is filed as functional, cell-based. To be noted: HT-1080.
Chain of Methionine aminopeptidase 2 (P50579 2-478 limits assumed): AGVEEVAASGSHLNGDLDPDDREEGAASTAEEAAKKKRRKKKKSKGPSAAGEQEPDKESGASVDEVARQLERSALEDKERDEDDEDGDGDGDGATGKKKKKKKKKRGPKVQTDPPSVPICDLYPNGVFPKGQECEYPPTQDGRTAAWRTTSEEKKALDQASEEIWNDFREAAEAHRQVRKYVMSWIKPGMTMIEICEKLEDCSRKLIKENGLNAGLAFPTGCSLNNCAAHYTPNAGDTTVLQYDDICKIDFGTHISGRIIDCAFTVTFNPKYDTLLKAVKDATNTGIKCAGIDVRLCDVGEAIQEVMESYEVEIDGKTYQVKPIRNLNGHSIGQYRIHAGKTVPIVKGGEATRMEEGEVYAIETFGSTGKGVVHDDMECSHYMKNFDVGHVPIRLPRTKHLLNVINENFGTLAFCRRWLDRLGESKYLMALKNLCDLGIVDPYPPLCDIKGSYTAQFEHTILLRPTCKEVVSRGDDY

Chain of Interferon-induced, double-stranded RNA-activated protein kinase (Homo sapiens) (P19525 whole entry): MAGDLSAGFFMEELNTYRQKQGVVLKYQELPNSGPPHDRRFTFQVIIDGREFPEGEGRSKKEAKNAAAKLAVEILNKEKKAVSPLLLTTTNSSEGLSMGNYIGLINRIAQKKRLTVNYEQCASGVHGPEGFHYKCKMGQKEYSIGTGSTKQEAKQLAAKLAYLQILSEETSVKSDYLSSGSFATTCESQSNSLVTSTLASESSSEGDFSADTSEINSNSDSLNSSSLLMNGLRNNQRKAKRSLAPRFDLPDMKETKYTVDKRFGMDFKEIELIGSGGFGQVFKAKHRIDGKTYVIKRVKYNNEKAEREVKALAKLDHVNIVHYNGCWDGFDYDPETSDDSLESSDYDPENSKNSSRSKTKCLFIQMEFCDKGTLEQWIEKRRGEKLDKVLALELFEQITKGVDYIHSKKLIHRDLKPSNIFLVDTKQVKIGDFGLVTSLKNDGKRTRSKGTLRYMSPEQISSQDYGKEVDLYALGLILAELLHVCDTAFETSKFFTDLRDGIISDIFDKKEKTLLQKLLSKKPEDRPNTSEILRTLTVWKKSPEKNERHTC
Chain of Tyrosine-protein kinase JAK2 (Homo sapiens) (O60674 whole entry): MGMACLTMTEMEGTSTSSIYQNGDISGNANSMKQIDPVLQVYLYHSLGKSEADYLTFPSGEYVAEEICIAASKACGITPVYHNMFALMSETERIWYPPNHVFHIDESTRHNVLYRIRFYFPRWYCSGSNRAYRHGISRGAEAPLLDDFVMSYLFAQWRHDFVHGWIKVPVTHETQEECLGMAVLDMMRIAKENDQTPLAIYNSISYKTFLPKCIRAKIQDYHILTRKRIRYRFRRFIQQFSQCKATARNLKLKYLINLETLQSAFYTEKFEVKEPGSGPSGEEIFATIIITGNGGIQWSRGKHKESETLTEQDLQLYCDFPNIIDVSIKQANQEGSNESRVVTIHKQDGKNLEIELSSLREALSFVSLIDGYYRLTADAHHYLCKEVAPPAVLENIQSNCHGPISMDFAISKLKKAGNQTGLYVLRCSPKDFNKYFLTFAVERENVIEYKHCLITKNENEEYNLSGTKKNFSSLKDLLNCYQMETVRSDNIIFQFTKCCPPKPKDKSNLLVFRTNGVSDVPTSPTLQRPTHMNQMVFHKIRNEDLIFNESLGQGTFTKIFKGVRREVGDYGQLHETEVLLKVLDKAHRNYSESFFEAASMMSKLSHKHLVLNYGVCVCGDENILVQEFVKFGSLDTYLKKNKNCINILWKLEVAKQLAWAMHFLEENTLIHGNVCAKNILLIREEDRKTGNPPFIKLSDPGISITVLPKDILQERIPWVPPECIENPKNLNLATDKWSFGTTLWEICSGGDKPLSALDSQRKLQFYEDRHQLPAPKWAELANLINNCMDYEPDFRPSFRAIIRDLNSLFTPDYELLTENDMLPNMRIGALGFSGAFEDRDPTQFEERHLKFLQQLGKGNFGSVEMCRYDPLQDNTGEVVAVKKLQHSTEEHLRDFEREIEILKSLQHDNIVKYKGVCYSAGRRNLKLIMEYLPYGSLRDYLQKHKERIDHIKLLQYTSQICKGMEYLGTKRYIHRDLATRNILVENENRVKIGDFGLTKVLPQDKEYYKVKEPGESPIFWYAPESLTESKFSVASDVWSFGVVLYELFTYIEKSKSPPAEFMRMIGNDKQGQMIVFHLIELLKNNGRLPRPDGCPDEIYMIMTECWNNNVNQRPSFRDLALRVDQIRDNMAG
Chain of MAP kinase-activated protein kinase 3 (Homo sapiens) (Q16644 whole entry, looked up): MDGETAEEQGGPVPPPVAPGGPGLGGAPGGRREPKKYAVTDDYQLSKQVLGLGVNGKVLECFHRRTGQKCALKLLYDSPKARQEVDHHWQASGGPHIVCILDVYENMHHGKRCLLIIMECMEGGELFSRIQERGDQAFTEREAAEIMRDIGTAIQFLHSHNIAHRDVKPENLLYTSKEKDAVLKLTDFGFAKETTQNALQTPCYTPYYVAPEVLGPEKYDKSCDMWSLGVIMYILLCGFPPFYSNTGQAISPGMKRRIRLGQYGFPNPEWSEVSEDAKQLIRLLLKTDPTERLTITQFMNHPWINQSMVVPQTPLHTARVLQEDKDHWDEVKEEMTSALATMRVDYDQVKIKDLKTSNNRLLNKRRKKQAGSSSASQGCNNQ
Chain of eIF-2-alpha kinase GCN2 (Homo sapiens) (Q9P2K8 whole entry): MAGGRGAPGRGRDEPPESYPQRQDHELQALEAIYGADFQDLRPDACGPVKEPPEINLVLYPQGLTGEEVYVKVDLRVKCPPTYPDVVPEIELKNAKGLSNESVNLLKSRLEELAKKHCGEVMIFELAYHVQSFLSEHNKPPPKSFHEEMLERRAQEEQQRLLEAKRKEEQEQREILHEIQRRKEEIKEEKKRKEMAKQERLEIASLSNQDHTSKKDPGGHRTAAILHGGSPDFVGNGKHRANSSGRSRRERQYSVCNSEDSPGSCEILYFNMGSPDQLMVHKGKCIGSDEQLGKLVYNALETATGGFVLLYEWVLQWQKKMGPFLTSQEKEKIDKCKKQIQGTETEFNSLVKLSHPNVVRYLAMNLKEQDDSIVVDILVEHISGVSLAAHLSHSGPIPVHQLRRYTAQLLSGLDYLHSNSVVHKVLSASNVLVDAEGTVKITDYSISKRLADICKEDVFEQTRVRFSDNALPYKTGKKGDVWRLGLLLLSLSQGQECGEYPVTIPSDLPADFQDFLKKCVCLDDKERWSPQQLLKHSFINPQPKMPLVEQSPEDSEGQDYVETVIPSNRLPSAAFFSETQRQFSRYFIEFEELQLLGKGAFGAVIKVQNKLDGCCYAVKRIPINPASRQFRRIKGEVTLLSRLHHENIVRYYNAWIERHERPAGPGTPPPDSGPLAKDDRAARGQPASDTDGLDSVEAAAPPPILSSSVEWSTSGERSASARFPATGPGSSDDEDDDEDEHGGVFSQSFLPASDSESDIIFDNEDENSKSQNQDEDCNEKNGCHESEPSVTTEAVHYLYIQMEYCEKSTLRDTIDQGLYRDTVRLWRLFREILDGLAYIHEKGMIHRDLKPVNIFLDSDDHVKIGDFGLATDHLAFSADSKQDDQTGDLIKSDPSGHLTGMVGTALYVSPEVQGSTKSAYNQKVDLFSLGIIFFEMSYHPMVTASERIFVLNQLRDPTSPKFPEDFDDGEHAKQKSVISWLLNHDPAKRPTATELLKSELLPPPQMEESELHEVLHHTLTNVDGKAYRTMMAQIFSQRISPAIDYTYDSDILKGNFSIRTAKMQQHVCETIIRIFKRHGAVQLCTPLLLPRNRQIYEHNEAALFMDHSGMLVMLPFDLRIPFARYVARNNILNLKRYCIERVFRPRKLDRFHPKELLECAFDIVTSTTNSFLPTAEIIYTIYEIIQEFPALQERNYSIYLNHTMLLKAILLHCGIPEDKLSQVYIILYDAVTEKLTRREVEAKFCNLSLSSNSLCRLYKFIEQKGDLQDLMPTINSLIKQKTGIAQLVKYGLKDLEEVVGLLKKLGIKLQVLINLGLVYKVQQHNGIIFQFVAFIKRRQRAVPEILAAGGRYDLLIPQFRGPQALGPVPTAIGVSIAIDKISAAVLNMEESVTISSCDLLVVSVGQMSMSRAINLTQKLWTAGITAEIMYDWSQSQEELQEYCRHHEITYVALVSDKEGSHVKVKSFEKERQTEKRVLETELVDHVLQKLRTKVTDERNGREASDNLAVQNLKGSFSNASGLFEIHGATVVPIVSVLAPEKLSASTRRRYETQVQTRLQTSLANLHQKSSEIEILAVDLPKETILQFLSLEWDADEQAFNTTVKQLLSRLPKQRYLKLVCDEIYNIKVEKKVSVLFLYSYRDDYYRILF
Chain of Mitogen-activated protein kinase kinase kinase kinase 2 MAP4K2 (Homo sapiens) (Q12851 whole entry, looked up): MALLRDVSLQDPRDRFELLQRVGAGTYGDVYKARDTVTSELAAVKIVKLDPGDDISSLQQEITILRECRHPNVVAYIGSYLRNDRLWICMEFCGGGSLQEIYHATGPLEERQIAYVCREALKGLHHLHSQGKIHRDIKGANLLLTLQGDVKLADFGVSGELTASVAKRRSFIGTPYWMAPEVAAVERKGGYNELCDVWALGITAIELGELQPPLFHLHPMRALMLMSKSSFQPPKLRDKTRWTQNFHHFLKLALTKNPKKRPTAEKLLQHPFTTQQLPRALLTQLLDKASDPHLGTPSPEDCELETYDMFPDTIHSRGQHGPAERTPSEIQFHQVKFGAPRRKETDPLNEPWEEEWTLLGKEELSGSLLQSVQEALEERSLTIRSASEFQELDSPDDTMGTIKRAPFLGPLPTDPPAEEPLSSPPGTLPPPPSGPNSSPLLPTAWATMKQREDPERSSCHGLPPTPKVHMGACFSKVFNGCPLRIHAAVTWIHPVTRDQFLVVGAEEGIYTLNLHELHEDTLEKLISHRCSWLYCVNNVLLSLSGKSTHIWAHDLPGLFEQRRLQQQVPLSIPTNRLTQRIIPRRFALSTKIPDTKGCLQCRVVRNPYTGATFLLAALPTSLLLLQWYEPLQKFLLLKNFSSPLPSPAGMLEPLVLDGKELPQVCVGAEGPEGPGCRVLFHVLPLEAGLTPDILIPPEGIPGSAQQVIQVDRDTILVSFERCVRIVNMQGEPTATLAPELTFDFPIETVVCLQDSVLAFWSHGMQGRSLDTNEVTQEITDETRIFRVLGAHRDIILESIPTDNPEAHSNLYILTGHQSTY

As for `O=C1NCCCC1N1Cc2cc(C3CCN(C(=O)CCCCCN4CCC(c5ccc(Oc6nn7cnnc7c7c6CCCC7)cc5)CC4)CC3)ccc2C1=O` (stereo unspecified), the inhibition is 10.3% in [1]; 10.1% in assay [2]; -6% in assay [3]; 11.4% in assay [4]; 10.8% in assay [5].

Turning to `O=C1CCC(N2Cc3cc(C4CCN(C(=O)CCCCCN5CCC(c6ccc(Oc7nn8cnnc8c8c7CCCC8)cc6)CC5)CC4)ccc3C2=O)C(=O)N1` (stereo unspecified), the inhibition is 5% in assay [6]; 11.3% in assay [7]; -1% in [8]; 17.2% in [9]; 21.8% in [10]. Moreover, in assay [11], the Dmax was 88.5%.
